The supplement of paper PMC10331698
± gives the standard deviation of the averaged measurements.

Tests used:
Test in all cases: level (log10 ratio to DMSO vehicle control); higher = higher biomarker level / cell amount than vehicle control
Conditions in all cases: in DMSO
[1] = compound: O=S(=O)(O)C(F)(F)C(F)(F)C(F)(F)C(F)(F)C(F)(F)C(F)(F)C(F)(F)C(F)(F)F [Perfluorooctanesulfonic acid]
Protocol: (§1)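 BioMAP Diversity Plus panel of 12 human primary cell co-culture systems (3C, 4H, LPS, SAg, BT, BF4T, BE3C, CASM3C, HDF3CGF, KF3CT, MyoF, Mphg). Compounds were added 1 h before stimulation and left for 24 h (MyoF 48 h; BT 72 h for soluble read-outs or 6 d for IgG). Biomarkers were read by ELISA, cytotoxicity by SRB, PBMC viability and proliferation by Alamar Blue. Each well value was divided by the mean of 8 DMSO control wells on the same plate and log10 transformed; duplicate blinded samples were tested at 4 concentrations.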

[2] = compound: O=S(=O)(O)C(F)(F)C(F)(F)C(F)(F)C(F)(F)C(F)(F)C(F)(F)C(F)(F)C(F)(F)F [Potassium perfluorooctanesulfonate]
Protocol: as §1

[3] = compound: FC(F)(F)C(F)(F)C(F)(F)C(F)(F)C(F)(F)C(F)(F)C(F)(F)CCI [1-Iodo-1H,1H,2H,2H-perfluorononane]
Protocol: as §1

[4] = compound: C=CC(=O)OCCC(F)(F)C(F)(F)C(F)(F)C(F)(F)F [2-(Perfluorobutyl)ethyl acrylate]
Protocol: as §1

[5] = compound: O=C(O)CCC(F)(F)C(F)(F)C(F)(F)F [3:3 Fluorotelomer carboxylic acid]
Protocol: as §1

Azathioprine = compound: Cn1cnc([N+](=O)[O-])c1Sc1ncnc2[nH]cnc12 [Azathioprine]
Protocol: as §1

Test System	level (log10) ([1]; 6700 nM)	level (log10) ([1]; 20000 nM)	level (log10) ([1]; 60000 nM)	level (log10) ([2]; 6700 nM)	level (log10) ([2]; 20000 nM)	level (log10) ([2]; 60000 nM)	level (log10) ([3]; 6700 nM)	level (log10) ([3]; 20000 nM)	level (log10) ([4]; 6700 nM)	level (log10) ([4]; 20000 nM)	level (log10) ([4]; 60000 nM)	level (log10) ([5]; 6700 nM)	level (log10) ([5]; 20000 nM)	level (log10) ([5]; 60000 nM)	level (log10) (Azathioprine; 1400 nM)	level (log10) (Azathioprine; 4200 nM)	level (log10) (Azathioprine; 13000 nM)	level (log10) (Azathioprine; 38000 nM)
BT:sIL-6	0.0325 ± 0.06	-0.0415 ± 0.046	-0.0185 ± 0.039	0.0165 ± 0.042	0.0765 ± 0.016	-0.023 ± 0.11	0.009 ± 0.017	-0.0575 ± 0.042	-0.063 ± 0.041	-0.153 ± 0.0028	-0.76 ± 0.15	0.0225 ± 0.056	0.055 ± 0.065	0.0425 ± 0.076	-0.0045 ± 0.042	-0.0485 ± 0.074	-0.228 ± 0.013	-0.563 ± 0.0042
BE3C:CD54/ICAM-1	0.016 ± 0.011	0.0665 ± 0.00071	-0.263 ± 0.21	0.027 ± 0.0028	0.074 ± 0.024	0.0575 ± 0.0064	0.0115 ± 0.005	-0.009 ± 0.016	-0.0045 ± 0.0035	-0.0175 ± 0.0064	-0.037 ± 0.03	-0.009 ± 0.0042	0.017 ± 0.02	0.002 ± 0.0057	0 ± 0.018	-0.0115 ± 0.013	-0.0075 ± 0.0078	-0.001 ± 0.031
LPS:CD106/VCAM-1	-0.009 ± 0.0085	-0.017 ± 0.011	-0.023 ± 0.027	0.0025 ± 0.019	-0.004 ± 0.016	-0.0125 ± 0.04	0.002 ± 0.011	-0.0155 ± 0.039	-0.028 ± 0.024	-0.0465 ± 0.0035	-0.141 ± 0.011	-0.0155 ± 0.0078	0.011 ± 0.0028	-0.0145 ± 0.029	-0.0125 ± 0.03	-0.0215 ± 0.028	-0.0595 ± 0.028	-0.155 ± 0.025
BE3C:CXCL11/I-TAC	-0.0085 ± 0.00071	-0.0735 ± 0.028	-0.555 ± 0.15	-0.002 ± 0.0042	-0.113 ± 0.012	-0.203 ± 0.024	-0.004 ± 0.0057	-0.001 ± 0.0042	0.0035 ± 0.00071	-0.0065 ± 0.012	-0.018 ± 0.0028	-0.004 ± 0.021	0.0045 ± 0.005	0.0005 ± 0.0035	-0.0205 ± 0.035	0.008 ± 0.0028	0.01 ± 0.031	0.025 ± 0.051
4H:CCL2/MCP-1	-0.001 ± 0.0085	-0.0275 ± 0.021	-0.0255 ± 0.005	0.0095 ± 0.023	-0.0305 ± 0.0064	-0.0215 ± 0.025	-0.0175 ± 0.019	0.0395 ± 0.1	-0.0405 ± 0.028	-0.043 ± 0.037	0.009 ± 0.11	-0.032 ± 0.048	-0.0525 ± 0.012	0.007 ± 0.013	0.018 ± 0.096	0.0255 ± 0.04	-0.035 ± 0.1	0.0055 ± 0.042
BF4T:CXCL8/IL-8	-0.0155 ± 0.00071	-0.032 ± 0.014	-0.0185 ± 0.059	0.0005 ± 0.052	-0.0105 ± 0.047	0.0205 ± 0.0078	-0.0015 ± 0.018	0.011 ± 0.025	-0.006 ± 0.023	-0.0105 ± 0.025	0.005 ± 0.027	-0.0125 ± 0.025	-0.0155 ± 0.052	-0.019 ± 0.031	-0.013 ± 0.011	-0.0325 ± 0.0064	-0.0455 ± 0.016	-0.0405 ± 0.016
LPS:M-CSF	-0.022 ± 0.011	0 ± 0.031	0.008 ± 0.017	-0.0215 ± 0.016	0 ± 0.024	0.008 ± 0.014	-0.003 ± 0.028	-0.0015 ± 0.093	-0.0115 ± 0.0021	-0.0085 ± 0.011	-0.052 ± 0.085	-0.0335 ± 0.052	-0.0095 ± 0.016	0.0215 ± 0.033	-0.011 ± 0.025	-0.024 ± 0.018	-0.0475 ± 0.056	-0.125 ± 0.0042
4H:CD87/uPAR	0.07 ± 0.033	0.065 ± 0.014	0.0945 ± 0.049	0.0655 ± 0.044	0.037 ± 0.033	0.082 ± 0.058	0.0135 ± 0.00071	0.0025 ± 0.026	-0.005 ± 0.038	0.0055 ± 0.0035	0.025 ± 0.0085	0.001 ± 0.027	-0.014 ± 0.0071	-0.045 ± 0.011	0.0045 ± 0.018	-0.03 ± 0.035	-0.0015 ± 0.00071	0.0315 ± 0.00071
SAg:PBMC Cytotoxicity	0.0135 ± 0.0092	0.021 ± 0.013	0.0185 ± 0.013	0.0165 ± 0.0092	0.012 ± 0.013	0.0315 ± 0.029	-0.005 ± 0.045	0.0205 ± 0.035	-0.034 ± 0.0085	-0.0385 ± 0.011	-0.125 ± 0.028	-0.022 ± 0.0071	-0.014 ± 0.031	-0.0045 ± 0.035	-0.007 ± 0.033	-0.0015 ± 0.044	-0.0385 ± 0.03	-0.0635 ± 0.023
LPS:CD40	-0.018	-0.0345 ± 0.022	-0.076 ± 0.073	-0.062 ± 0.052	-0.055 ± 0.014	-0.062 ± 0.016	-0.0105 ± 0.019	0.034 ± 0.025	-0.0445 ± 0.00071	-0.044 ± 0.035	-0.237 ± 0.035	-0.0035 ± 0.021	0.027 ± 0.028	-0.014 ± 0.051	-0.041 ± 0.03	-0.04 ± 0.016	-0.08 ± 0.047	-0.148 ± 0.03
SAg:Proliferation	0.001 ± 0.031	0.0185 ± 0.011	0.0675 ± 0.00071	0.0005 ± 0.0021	0.0495 ± 0.0035	0.066 ± 0.051	-0.0025 ± 0.063	-0.0055 ± 0.074	-0.043 ± 0.035	-0.122 ± 0.035	-0.372 ± 0.1	-0.021 ± 0.013	0.0205 ± 0.053	-0.006 ± 0.0085	-0.017 ± 0.047	-0.052 ± 0.035	-0.172 ± 0.005	-0.29 ± 0.021
LPS:CXCL8/IL-8	-0.0005 ± 0.011	0.015 ± 0.02	0.0235 ± 0.046	0.0255 ± 0.067	0.0435 ± 0.0092	0.061 ± 0.05	0.005 ± 0.072	-0.001 ± 0.082	0.0145 ± 0.015	0.0225 ± 0.012	-0.015 ± 0.054	0.004 ± 0.0042	-0.0105 ± 0.0021	0.0165 ± 0.03	0.035 ± 0.025	0.0065 ± 0.013	0.0085 ± 0.0092	-0.049 ± 0.072
LPS:CD69	-0.018 ± 0.0057	-0.0385 ± 0.0021	-0.025 ± 0.014	-0.0315 ± 0.012	-0.046 ± 0.0057	-0.0205 ± 0.039	-0.0145 ± 0.026	-0.0065 ± 0.063	-0.0225 ± 0.015	-0.017 ± 0.041	-0.049 ± 0.041	-0.0345 ± 0.09	-0.016 ± 0.052	-0.0435 ± 0.061	-0.0175 ± 0.00071	-0.046 ± 0.0014	-0.0345 ± 0.033	-0.073 ± 0.04
LPS:sTNF-alpha	0.0195 ± 0.079	-0.043 ± 0.062	-0.0545 ± 0.076	-0.03 ± 0.073	-0.047 ± 0.1	-0.0915 ± 0.15	0.0075 ± 0.0035	0.0035 ± 0.0021	-0.009 ± 0.014	-0.0025 ± 0.018	-0.0165 ± 0.025	-0.0235 ± 0.023	-0.0195 ± 0.019	-0.0115 ± 0.032	-0.0135 ± 0.022	-0.015 ± 0.0099	-0.035 ± 0.017	-0.233 ± 0.0078
BT:sTNF-alpha	-0.047 ± 0.095	-0.0585 ± 0.054	0.0105 ± 0.079	0.003 ± 0.076	0.0225 ± 0.069	-0.039 ± 0.016	0.018 ± 0.054	0.063 ± 0.12	-0.095 ± 0.1	-0.192 ± 0.0085	-0.767 ± 0.3	0.152 ± 0.077	0.0025 ± 0.098	0.158 ± 0.018	0.0225 ± 0.22	-0.168 ± 0.11	-0.167 ± 0.017	-0.782 ± 0.077
3C:Proliferation	0.0055 ± 0.037	0.0115 ± 0.036	-0.022 ± 0.044	-0.042 ± 0.035	-0.0165 ± 0.061	-0.0445 ± 0.0092	-0.019 ± 0.0085	-0.027 ± 0.0057	-0.0445 ± 0.049	-0.088 ± 0.028	-0.304 ± 0.07	-0.0215 ± 0.054	-0.0175 ± 0.091	0.0195 ± 0.049	-0.04 ± 0.057	-0.038 ± 0.081	-0.048 ± 0.018	-0.179 ± 0.031
